Data set [1] has as its system Delayed type hypersensitivity (DTH) skin inflammation in Balb/c mice. Kind of data set: Delayed type hypersensitivity (DTH), oxazolone-induced mouse ear swelling test. It counts as in vivo. The note with it: for % Inflamation (Diff/Base line * 100) / % Inhibition / Difference mm: 24 hours; for inhibition of inflammation: DTH model. The protocol: Delayed type hypersensitivity (DTH), a localized inflammatory reaction induced by cytokines secreted by certain TH cells when they encounter certain types of antigens, is an established experimental model for skin inflammation.
DTH reactions were induced in the abdomen skin of 8 week old female Balb/c mice, weighing 20 g each.
The mice were sensitized first by topical application of 100 μl of a 5% Oxazolone (4-Ethoxymethylene-2-phenyl-2-oxazolin-5-one; Sigma) solution in ethanol/acetone (3:1, vol/vol) to a shaved abdomen. The mice were anesthetized with I.P. injection of 0.2 ml/mouse of a stock solution prepared from Ketamine (1 ml)+Xylazine (1 ml)+Saline (8 ml). The anesthesia was done for the shaving of the abdomen and the first sensitization.
After 4 days the mice were challenged for the second time using 1% Oxazolone (4-Ethoxymethylene-2-phenyl-2-oxazolin-5-one; Sigma) solution in ethanol/acetone (3:1, vol/vol). The solution was pipetted onto the shaved abdomen of the mice.
Six days after the first sensitization, the right ear of each mouse was challenged with topical application of 20 μl (10 μl at each surface of the ear) of a 1% Oxazolone solution in olive oil/acetone (3:1, vol/vol).
Treatment was given 30 min after the elicitation by applying 40 μl (20 μl at each surface of the ear) of treatment compounds, as described before, on the challenged ear of each mouse.
After 24 hours, the extent of inflammation was measured using the mouse ear swelling test (caliper) and the percent inhibition induced by the treatment was quantified.
The experiment includes a positive control group which was administered Dexamethasone 2 mg/mouse, one untreated group as a negative control and one naïve group.
Baseline measurements of the ear were conducted before the first sensitization.

A further data set is described as follows: pKa of the compound. It counts as physicochemical.
The nature of data set [2]: Racemization in various solvents, S-isomer measured by chiral HPLC. It counts as physicochemical. The protocol: A sample of (R)-Amino-phenyl-acetic acid octadec-9-(Z)-enyl ester HCl (Compound 2) was suspended in various solvents (2 mg/ml). The compound was 99.7% enantiomerically pure as determined by chiral HPLC. The presence of the S-isomer (compound 1) was measured after various time points. The amount of racemization in terms of percent (relative to compound 1+compound 2) is detailed in Table 2 below.
The presence of the S-isomer (Compound 1) was measured by chiral HPLC after various time points. The amount in terms of percent (relative to compound 1+compound 2) is detailed in the table below.

The mark [3] stands for this setting: 5 mg/ml, 0.2 mg/mouse topical on challenged ear.
The mark [4] stands for this setting: 8 mg/ml, 0.32 mg/mouse topical on challenged ear.
Where [5] appears, read: 12.5 mg/ml, 0.5 mg/mouse topical on challenged ear.
Setting [6] is: 25 mg/ml, 1 mg/mouse topical on challenged ear.
Setting [7] is: positive control, 50 mg/ml, 2 mg/mouse.

The text below walks through data of patent US7964751B2, “Enantiomers of amino-phenyl-acetic acid octadec-9-(Z) enyl ester, their salts and their uses” (Yeda Research and Development Co. Ltd., priority 2007, dated 2011).

Counter-ions that a name gives are not always drawn.

With `CCCCCCCC/C=C\CCCCCCCCOC(=O)C(N)c1ccccc1.Cl` (racemic) [Racemic, aminophenylacetic acid octadec-(Z)-9-enyl ester HCl, reference compound], the “% Inflamation (Diff/Base line * 100)” value was 69.43% in data set [1] (setting [3]), 73.53% in data set [1] (setting [4]), 43.08% in data set [1] (setting [5]) and 13.68% in data set [1] (setting [6]). For the same compound, the “% Inhibition” value in data set [1] (setting [3]) was determined as 38.46%; in data set [1] (setting [4]), 39.98%; in data set [1] (setting [5]) it was 60.14%; in data set [1] (setting [6]), 87.76%. Further, the Difference mm in data set [1] (setting [3]) was 0.18 mm; in data set [1] (setting [4]), 0.17 mm; in data set [1] (setting [5]), 0.11 mm; in data set [1] (setting [6]), 0.04 mm. Also, in data set [1], the inhibition of inflammation result is given as “provide inhibition of inflammation”.
As for `CCCCCCCC/C=C\CCCCCCCCOC(=O)[C@@H](N)c1ccccc1` [Compound 1, (S)-Amino-phenyl-acetic acid octadec-9-(Z)-enyl ester HCl], the “% Inflamation (Diff/Base line * 100)” value in data set [1] (setting [3]) is on record as 87.18%; in data set [1] (setting [4]) it was 34.76%; in data set [1] (setting [5]) it was 25.84%; in data set [1] (setting [6]), 17.70%. Moreover, the “% Inhibition” value came out at 20.75% in data set [1] (setting [3]), 68.53% in data set [1] (setting [4]), 77.86% in data set [1] (setting [5]) and 83.68% in data set [1] (setting [6]). Further, the Difference mm in data set [1] (setting [3]) is 0.23 mm; in data set [1] (setting [4]) it was 0.09 mm; in data set [1] (setting [5]), 0.06 mm; in data set [1] (setting [6]) it was 0.05 mm. In addition, in data set [1], the inhibition of inflammation result is “provide inhibition of inflammation”.
For the compound `CCCCCCCC/C=C\CCCCCCCCOC(=O)[C@H](N)c1ccccc1` [Compound 2, (R)-Amino-phenyl-acetic acid octadec-9-(Z)-enyl ester HCl], the “% Inflamation (Diff/Base line * 100)” value amounted to 71.13% in data set [1] (setting [3]), 41.68% in data set [1] (setting [4]), 50.31% in data set [1] (setting [5]) and 35.01% in data set [1] (setting [6]). Further, the “% Inhibition” value in data set [1] (setting [3]) amounted to 39.39%; in data set [1] (setting [4]) it was 62.12%; in data set [1] (setting [5]) it was 55.71%; in data set [1] (setting [6]), 68.53%. The Difference mm in data set [1] (setting [3]) is 0.17 mm; in data set [1] (setting [4]), 0.11 mm; in data set [1] (setting [5]) it was 0.13 mm; in data set [1] (setting [6]), 0.09 mm. For the same compound, the inhibition of inflammation entry in data set [1] is “provide inhibition of inflammation”. In “pKa of the compound”, the pKa worked out at 4.2. Moreover, the “Percent racemization (relative to compound 1 + compound 2)” value in data set [2] (0.1 N HCl, 2 mg/ml, 0 hours) worked out at 0.4%; in data set [2] (0.1 N HCl, 2 mg/ml, 1 hour) it was 0.4%; in data set [2] (0.1 N HCl, 2 mg/ml, 2 hours), 0.4%; in data set [2] (0.1 N HCl, 2 mg/ml, 3 hours), 0.3%; in data set [2] (0.1 N HCl, 2 mg/ml, 4 hours) it was 0.3%; in data set [2] (0.1 N HCl, 2 mg/ml, 21 hours), 0.3%. Also, the “Percent racemization (relative to compound 1 + compound 2)” value is recorded as 0.9% in data set [2] (0.9% NaCl solution, 2 mg/ml, 0 hours); 1.2% in data set [2] (0.9% NaCl solution, 2 mg/ml, 1 hour); 2.3% in data set [2] (0.9% NaCl solution, 2 mg/ml, 2 hours); 3.3% in data set [2] (0.9% NaCl solution, 2 mg/ml, 3 hours); 3.0% in data set [2] (0.9% NaCl solution, 2 mg/ml, 4 hours); 6.0% in data set [2] (0.9% NaCl solution, 2 mg/ml, 21 hours). Besides, the “Percent racemization (relative to compound 1 + compound 2)” value in data set [2] (PBS, pH 7.4, 2 mg/ml, 0 hours) worked out at 0.4%; in data set [2] (PBS, pH 7.4, 2 mg/ml, 1 hour) it was 7.2%; in data set [2] (PBS, pH 7.4, 2 mg/ml, 2 hours), 12.3%; in data set [2] (PBS, pH 7.4, 2 mg/ml, 3 hours), 15.0%; in data set [2] (PBS, pH 7.4, 2 mg/ml, 4 hours) it was 17.9%; in data set [2] (PBS, pH 7.4, 2 mg/ml, 21 hours), 47.0%. The “Percent racemization (relative to compound 1 + compound 2)” value in data set [2] (Purified water, 2 mg/ml, 0 hours) is listed as 0.4%; in data set [2] (Purified water, 2 mg/ml, 1 hour), 3.8%; in data set [2] (Purified water, 2 mg/ml, 2 hours) it was 7.2%; in data set [2] (Purified water, 2 mg/ml, 3 hours), 10.3%; in data set [2] (Purified water, 2 mg/ml, 4 hours), 13.9%; in data set [2] (Purified water, 2 mg/ml, 21 hours), 38.2%. For the same compound, the “S-isomer (Compound 1) amount in percent (relative to compound 1+compound 2)” value in data set [2] (1% Acetic acid, pH 2.8, 2 mg/ml, 0 hr) is listed as 0.7%; in data set [2] (1% Acetic acid, pH 2.8, 2 mg/ml, 1 hr) it was 2.0%; in data set [2] (1% Acetic acid, pH 2.8, 2 mg/ml, 2 hr), 3.6%; in data set [2] (1% Acetic acid, pH 2.8, 2 mg/ml, 3 hr), 5.2%; in data set [2] (1% Acetic acid, pH 2.8, 2 mg/ml, 4 hr), 6.6%; in data set [2] (Acetate Buffer, pH 3.5, 2 mg/ml, 0 hr), 0.3%. For the same compound, the “S-isomer (Compound 1) amount in percent (relative to compound 1+compound 2)” value in data set [2] (Acetate Buffer, pH 3.5, 2 mg/ml, 1 hr) turned out to be 3.3%; in data set [2] (Acetate Buffer, pH 3.5, 2 mg/ml, 2 hr), 6.2%; in data set [2] (Acetate Buffer, pH 3.5, 2 mg/ml, 3 hr), 9.3%; in data set [2] (Acetate Buffer, pH 3.5, 2 mg/ml, 4 hr), 12.1%; in data set [2] (Acetate Buffer, pH 4.0, 2 mg/ml, 0 hr), 0.2%; in data set [2] (Acetate Buffer, pH 4.0, 2 mg/ml, 1 hr) it was 7.7%. The “S-isomer (Compound 1) amount in percent (relative to compound 1+compound 2)” value in data set [2] (Acetate Buffer, pH 4.0, 2 mg/ml, 2 hr) is on record as 15.2%; in data set [2] (Acetate Buffer, pH 4.0, 2 mg/ml, 3 hr) it was 22.1%; in data set [2] (Acetate Buffer, pH 4.0, 2 mg/ml, 4 hr) it was 27.2%; in data set [2] (Acetate Buffer, pH 5.0, 2 mg/ml, 0 hr), 0.2%; in data set [2] (Acetate Buffer, pH 5.0, 2 mg/ml, 1 hr) it was 6.3%; in data set [2] (Acetate Buffer, pH 5.0, 2 mg/ml, 2 hr), 14.6%. Besides, the “S-isomer (Compound 1) amount in percent (relative to compound 1+compound 2)” value in data set [2] (Acetate Buffer, pH 5.0, 2 mg/ml, 3 hr) came out at 19.0%; in data set [2] (Acetate Buffer, pH 5.0, 2 mg/ml, 4 hr), 25.3%; in data set [2] (Acetate Buffer, pH 5.5, 2 mg/ml, 0 hr) it was 0.2%; in data set [2] (Acetate Buffer, pH 5.5, 2 mg/ml, 1 hr) it was 4.7%; in data set [2] (Acetate Buffer, pH 5.5, 2 mg/ml, 2 hr) it was 8.2%; in data set [2] (Acetate Buffer, pH 5.5, 2 mg/ml, 3 hr) it was 12.4%. Also, the “S-isomer (Compound 1) amount in percent (relative to compound 1+compound 2)” value in data set [2] (Acetate Buffer, pH 5.5, 2 mg/ml, 4 hr) amounted to 16.4%. Further, in data set [2] (various aqueous solvents), the “racemization in various aqueous solvents” value is on record as “undergoes racemization”.
On to `C[C@@H]1C[C@H]2[C@@H]3CCC4=CC(=O)C=C[C@]4(C)[C@@]3(F)[C@@H](O)C[C@]2(C)[C@@]1(O)C(=O)CO` [dexamethasone, Dexamethasone, reference compound], for which, in data set [1] (setting [7]), the “% Inflamation (Diff/Base line * 100)” value is 22.62%, the “% Inhibition” value was determined as 80.42% and the Difference mm is listed as 0.06 mm.

In general, % Inhibition refers to the share of the control response that was lost under treatment. A high value points to a response far below the control. The term pKa denotes the pH at which an ionisable group is half protonated. A higher pKa goes with a weaker acid or stronger base.
